# Results published in US20130210809A1, “NOVEL 2-AMINO-4-PYRAZOLYL-THIAZOLE DERIVATIVES AND THEIR USE AS ALLOSTERIC MODULATORS OF METABOTROPIC GLUTAMATE RECEPTORS” (priority 2010, published 2013).
# Target: T1, recombinant human mGluR4a receptors (Homo sapiens, UniProt Q14833)
# T1 construct: expressed in transfected cells
# Assay: mGluR4 assay on HEK-expressing human mGluR4 (fluorescent cell based Ca2+ mobilization assay, FLIPR)
# Settings: HEK-293 cells expressing hmGluR4; enhancement of EC25 glutamate response; mean of at least three independent experiments in duplicate; read-out: Ca^2+ Flux (mean EC50)
# Description: mGluR4 Assay on HEK-Expressing Human mGluR4
# The compounds of the present invention are positive allosteric modulators of mGluR4 receptor. Their activity was examined on recombinant human mGluR4a receptors by detecting changes in intracellular Ca^2+ concentration, using the fluorescent Ca^2+-sensitive dye Fluo4-(AM) and a Fluorometric Imaging Plate Reader (FLIPR, Molecular Devices, Sunnyvale, Calif.).
# The cDNA encoding the human metabotropic glutamate receptor (hmGluR4), (accession number NM_000841.1, NCBI Nucleotide database browser), was subcloned into an expression vector containing also the Hygromycin resistance gene. In parallel, the cDNA encoding a G protein allowing redirection of the activation signal to intracellular calcium flux was subcloned into a different expression vector containing also the Puromycin resistance gene. Transfection of both these vectors into HEK293 cells with PolyFect reagent (Qiagen) according to supplier's protocol, and hygromycin and puromycin treatment allowed selection of antibiotic resistant cells which had integrated stably one or more copies of the plasmids. Positive cellular clones expressing hmGluR4 were identified in a functional assay measuring changes in calcium flux in response to glutamate or selective known mGluR4 orthosteric agonists and antagonists. HEK-293 cells expressing hmGluR4 were maintained in media containing DMEM, dialyzed Fetal Calf Serum (10%), Glutamax™ (2 mM), Penicillin (100 units/mL), Streptomycin (100 μg/mL), Geneticin (100 μg/mL) and Hygromycin-B (40 μg/mL) and Puromycin (1 μg/mL) at 37° C./5% CO2.
# Human mGluR4 HEK-293 cells were plated out 24 hours prior to FLIPR^384 assay in black-walled, clear-bottomed, poly-L-ornithine-coated 384-well plates at a density of 25,000 cells/well in a glutamine/glutamate free DMEM medium containing foetal bovine serum (10%), penicillin (100 units/mL) and streptomycin (100 μg/mL) at 37° C./5% CO2.
# On the day of the assay, the medium was aspirated and the cells were loaded with a 3 μM solution of Fluo4-AM (LuBioScience, Lucerne, Switzerland) in 0.03% pluronic acid. After 1 hour at 37° C./5% CO2, the non incorporated dye was removed by washing cell plate with the assay buffer and the cells were left in the dark at it for six hours before testing. All assays were performed in a pH 7.4 buffered-solution containing 20 mM HEPES, 143 mM NaCl, 6 mM KCl, 1 mM MgSO4, 1 mM CaCl2, 0.125 mM sulfapyrazone and 0.1% glucose.
# After 10 s of basal fluorescence recording, various concentrations of the compounds of the invention were added to the cells. Changes in fluorescence levels were first monitored for 180 s in order to detect any agonist activity of the compounds. Then the cells were stimulated by an EC25 glutamate concentration for an additional 110 s in order to measure enhancing activities of the compounds of the invention. EC25 glutamate concentration is the concentration giving 25% of the maximal glutamate response.
# The concentration-response curves of representative compounds of the present invention were generated using the Prism GraphPad software (Graph Pad Inc, San Diego, USA). The curves were fitted to a four-parameter logistic equation:
# (Y=Bottom+(Top−Bottom)/(1+10̂((Log EC50-X)*Hill Slope)
# allowing the determination of EC50 values.
# The Table 3 below represents the mean EC50 obtained from at least three independent experiments of selected molecules performed in duplicate.
# T1 sequence (Q14833 33-912): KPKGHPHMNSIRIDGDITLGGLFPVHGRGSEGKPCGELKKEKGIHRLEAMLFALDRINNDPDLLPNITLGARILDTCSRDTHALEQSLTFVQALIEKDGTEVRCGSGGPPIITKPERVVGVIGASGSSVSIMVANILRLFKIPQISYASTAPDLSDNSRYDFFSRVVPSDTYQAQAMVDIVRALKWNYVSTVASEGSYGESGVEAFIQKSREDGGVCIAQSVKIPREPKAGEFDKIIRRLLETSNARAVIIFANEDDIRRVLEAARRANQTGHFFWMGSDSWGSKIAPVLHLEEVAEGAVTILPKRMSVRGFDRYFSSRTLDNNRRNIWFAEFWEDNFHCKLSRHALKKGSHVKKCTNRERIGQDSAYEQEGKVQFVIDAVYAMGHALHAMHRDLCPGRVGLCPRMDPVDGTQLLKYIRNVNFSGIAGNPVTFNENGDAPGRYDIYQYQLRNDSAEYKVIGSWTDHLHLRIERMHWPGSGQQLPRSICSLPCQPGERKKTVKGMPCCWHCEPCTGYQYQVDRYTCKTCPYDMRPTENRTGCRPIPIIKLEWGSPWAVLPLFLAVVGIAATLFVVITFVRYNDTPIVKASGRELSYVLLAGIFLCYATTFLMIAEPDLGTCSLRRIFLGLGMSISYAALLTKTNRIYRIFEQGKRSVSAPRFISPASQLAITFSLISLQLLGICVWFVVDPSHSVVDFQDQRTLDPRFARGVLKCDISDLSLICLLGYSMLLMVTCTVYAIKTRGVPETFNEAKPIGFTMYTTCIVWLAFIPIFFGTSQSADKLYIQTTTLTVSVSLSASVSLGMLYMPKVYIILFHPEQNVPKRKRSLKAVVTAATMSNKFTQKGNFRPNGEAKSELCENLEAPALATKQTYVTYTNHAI
row,Compound,EC50 [nM]
1,"Cc1ccnc(Nc2nc(-c3c[nH]nc3-c3cccc(C#N)c3)cs2)n1 [Compound 1-4, 3-(4-(2-(4-Methylpyrimidin-2-ylamino)thiazol-4-yl)-1H-pyrazol-3-yl)benzonitrile]",< 100
2,"COC(=O)N1CC=C(c2n[nH]cc2-c2csc(Nc3nccc(C)n3)n2)C1 [Compound 1-39, Methyl 3-(4-(2-(4-methylpyrimidin-2-ylamino)thiazol-4-yl)-1H-pyrazol-3-yl)-2,5-dihydro-1H-pyrrole-1-carboxylate]",100 to 1000
3,"COc1ccc(F)cc1-c1n[nH]cc1-c1csc(Nc2ncccn2)n1 [Compound 1-31, 4-(3-(5-Fluoro-2-methoxyphenyl)-1H-pyrazol-4-yl)-N-(pyrimidin-2-yl)thiazol-2-amine]",< 100
4,"Cc1ccnc(Nc2nc(-c3c[nH]nc3-c3cccc4c3CNC4=O)cs2)n1 [Compound 1-7, 4-(4-(2-(4-Methylpyrimidin-2-ylamino)thiazol-4-yl)-1H-pyrazol-3-yl)isoindolin-1-one]",1000 to 10000
5,"Cc1ccnc(Nc2nc(-c3c[nH]nc3-c3cncc(Cl)c3)cs2)n1 [Compound 1-10, 4-(3-(5-Chloropyridin-3-yl)-1H-pyrazol-4-yl)-N-(4-methylpyrimidin-2-yl)thiazol-2-amine]",1000 to 10000
6,"COCc1n[nH]cc1-c1csc(Nc2ncc(F)cn2)n1 [Compound 1-37, N-(5-Fluoropyrimidin-2-yl)-4-(3-(methoxymethyl)-1H-pyrazol-4-yl)thiazol-2-amine]",1000 to 10000
7,"Cc1ccnc(Nc2nc(-c3c[nH]nc3-c3ccc(C4CC4)cc3)cs2)n1 [Compound 1-17, 4-(3-(4-Cyclopropylphenyl)-1H-pyrazol-4-yl)-N-(4-methylpyrimidin-2-yl)thiazol-2-amine]",1000 to 10000
8,"COC(=O)N1CC=C(c2n[nH]cc2-c2csc(Nc3nccc(C)n3)n2)CC1 [Compound 1-41, Methyl 4-(4-(2-(4-methylpyrimidin-2-ylamino)thiazol-4-yl)-1H-pyrazol-3-yl)-5,6-dihydropyridine-1 (2H)-carboxylate]",1000 to 10000
9,"Cc1ccnc(Nc2nc(-c3c[nH]nc3-c3ccc(Cl)cc3)cs2)n1 [Compound 1-16, 4-(3-(4-Chlorophenyl)-1H-pyrazol-4-yl)-N-(4-methylpyrimidin-2-yl)thiazol-2-amine]",100 to 1000
10,"Cc1ccnc(Nc2nc(-c3c[nH]nc3-c3cccc(N4CCS(=O)(=O)CC4)c3)cs2)n1 [Compound 1-2, N-(4-Methylpyrimidin-2-yl)-4-(3-(3-(1,1-dioxido-4-thiomorpholinyl)phenyl)-1H-pyrazol-4-yl)thiazol-2-amine]",1000 to 10000
11,"Cc1ccnc(Nc2nc(-c3c[nH]nc3-c3cccc(N4CCC(O)C4)c3)cs2)n1 (stereo not shown) [Compound 1-42, 1-(3-(4-(2-(4-Methylpyrimidin-2-ylamino)thiazol-4-yl)-1H-pyrazol-3-yl)phenyl)pyrrolidin-3-ol]",100 to 1000
12,"CCc1ccnc(Nc2nc(-c3c[nH]nc3COC)cs2)n1 [Compound 1-38, N-(4-Ethylpyrimidin-2-yl)-4-(3-(methoxymethyl)-1H-pyrazol-4-yl)thiazol-2-amine]",1000 to 10000
13,"CC(=O)N1CC=C(c2n[nH]cc2-c2csc(Nc3nccc(C)n3)n2)CC1 [Compound 1-40, 1-(4-(4-(2-(4-Methylpyrimidin-2-ylamino)thiazol-4-yl)-1H-pyrazol-3-yl)-5,6-dihydropyridin-1(2H)-yl)ethanone]",1000 to 10000
14,"Cc1cccc(-c2n[nH]cc2-c2csc(Nc3nccc(C)n3)n2)c1 [Compound 1-12, N-(4-Methylpyrimidin-2-yl)-4-(3-m-tolyl-1H-pyrazol-4-yl)thiazol-2-amine]",1000 to 10000
15,"Cc1ccnc(Nc2nc(-c3c[nH]nc3C(F)F)cs2)n1 [Compound 1-1, 4-(3-(Difluoromethyl)-1H-pyrazol-4-yl)-N-(4-methylpyrimidin-2-yl)thiazol-2-amine]",< 100
16,"CC(=O)N1CCC=C(c2n[nH]cc2-c2csc(Nc3nccc(C)n3)n2)C1 [Compound 1-33, 1-(3-(4-(2-(4-Methylpyrimidin-2-ylamino)thiazol-4-yl)-1H-pyrazol-3-yl)-5,6-dihydropyridin-1(2H)-yl)ethanone]",1000 to 10000

row,Compound,EC50 [nM]
1,"CCOc1sc(Nc2nccc(C)n2)nc1-c1cn[nH]c1 [Compound 1-47, 5-Ethoxy-N-(4-methylpyrimidin-2-yl)-4-(1H-pyrazol-4-yl)thiazol-2-amine]",< 100
2,"Cc1ccnc(Nc2nc(-c3c[nH]nc3-c3cnn4c3CCC4)cs2)n1 [Compound 1-8, 4-(3-(5,6-Dihydro-4H-pyrrolo[1,2-b]pyrazol-3-yl)-1H-pyrazol-4-yl)-N-(4-methylpyrimidin-2-yl)thiazol-2-amine]",1000 to 10000
3,"CNC(=O)c1[nH]ncc1-c1csc(Nc2nccc(C)n2)n1 [Compound 1-32, N-Methyl-4-(2-(4-methylpyrimidin-2-ylamino)thiazol-4-yl)-1H-pyrazole-5-carboxamide]",1000 to 10000
4,"Cc1ccnc(Nc2nc(-c3c[nH]nc3-c3cncc(C(C)(C)O)c3)cs2)n1 [Compound 1-14, 2-(5-(4-(2-(4-Methylpyrimidin-2-ylamino)thiazol-4-yl)-1H-pyrazol-3-yl)pyridin-3-yl)propan-2-ol]",1000 to 10000
5,"Cc1ccnc(Nc2nc(-c3cn[nH]c3-c3cc(C#N)ccc3F)cs2)n1 [Compound 1-34, 4-Fluoro-3-(4-(2-(4-methylpyrimidin-2-ylamino)thiazol-4-yl)-1H-pyrazol-5-yl)benzonitrile]",100 to 1000
6,"Cc1ccnc(Nc2nc(-c3c[nH]nc3-c3ccccc3C)cs2)n1 [Compound 1-19, N-(4-Methylpyrimidin-2-yl)-4-(3-o-tolyl-1H-pyrazol-4-yl)thiazol-2-amine]",1000 to 10000
7,"Cc1ccnc(Nc2nc(-c3c[nH]nc3-c3cccc(CCCO)c3)cs2)n1 [Compound 1-15, 3-(3-(4-(2-(4-Methylpyrimidin-2-ylamino)thiazol-4-yl)-1H-pyrazol-3-yl)phenyl)propan-1-ol]",100 to 1000
8,"COc1ccccc1-c1n[nH]cc1-c1csc(Nc2nccc(C)n2)n1 [Compound 1-11, 4-(3-(2-Methoxyphenyl)-1H-pyrazol-4-yl)-N-(4-methylpyrimidin-2-yl)thiazol-2-amine]",1000 to 10000
9,"Cc1ccnc(Nc2nc(-c3c[nH]nc3-c3ccccc3Cl)cs2)n1 [Compound 1-21, 4-(3-(2-Chlorophenyl)-1H-pyrazol-4-yl)-N-(4-methylpyrimidin-2-yl)thiazol-2-amine]",100 to 1000
10,"Cc1ccnc(Nc2nc(-c3c[nH]nc3-c3cccc(C(N)=O)c3)cs2)n1 [Compound 1-22, 3-(4-(2-(4-Methylpyrimidin-2-ylamino)thiazol-4-yl)-1H-pyrazol-3-yl)benzamide]",1000 to 10000
11,"Cc1ccnc(Nc2nc(-c3c[nH]nc3-c3ccccc3OC(F)(F)F)cs2)n1 [Compound 1-20, N-(4-Methylpyrimidin-2-yl)-4-(3-(2-(trifluoromethoxy)phenyl)-1H-pyrazol-4-yl)thiazol-2-amine]",1000 to 10000
12,"Cc1nc(Nc2nc(-c3cn[nH]c3)c(C#N)s2)ns1 [Compound 1-44, 2-(5-Methyl-1,2,4-thiadiazol-3-ylamino)-4-(1H-pyrazol-4-yl)thiazole-5-carbonitrile]",< 100
13,"Cc1ccnc(Nc2nc(-c3cn[nH]c3-c3cccc(C#N)c3F)cs2)n1 [Compound 1-35, 2-Fluoro-3-(4-(2-(4-methylpyrimidin-2-ylamino)thiazol-4-yl)-1H-pyrazol-5-yl)benzonitrile]",< 100
14,"Cc1ccnc(Nc2nc(-c3cn[nH]c3COC3CCC3)cs2)n1 [Compound 1-28, 4-(5-(Cyclobutoxymethyl)-1H-pyrazol-4-yl)-N-(4-methylpyrimidin-2-yl)thiazol-2-amine]",100 to 1000
15,"c1ccc(Nc2nc(-c3c[nH]nc3N3CCOCC3)cs2)nc1 [Compound 1-13, 4-(3-Morpholino-1H-pyrazol-4-yl)-N-(pyridin-2-yl)thiazol-2-amine]",1000 to 10000
